According to the NIST ThermoML archive (doi:10.1021/acs.jced.5b00941):

Assays:
[1] = mn = molality of the nth substance listed, in mol/kg; conditions: 100 kPa, Liquid; for viscosity: Falling or rolling sphere viscometry; for mass density: Vibrating tube method
[2] = 100 kPa, Liquid, Falling or rolling sphere viscometry

O=C(O[C@@H]1Cc2c(O)cc(O)cc2O[C@@H]1c1cc(O)c(O)c(O)c1)c1cc(O)c(O)c(O)c1 + O
[1]
Conditions	mass density, 288.15 K [kg/m3]	mass density, 293.15 K [kg/m3]	mass density, 298.15 K [kg/m3]	mass density, 303.15 K [kg/m3]	mass density, 308.15 K [kg/m3]	viscosity, 288.15 K [mPa·s]	viscosity, 293.15 K [mPa·s]	viscosity, 298.15 K [mPa·s]	viscosity, 303.15 K [mPa·s]	viscosity, 308.15 K [mPa·s]
m1 = 0.0099	1000.71	999.804	998.637	997.228	995.598	1.148	1.014	0.906	0.815	0.739
m1 = 0.02	1002.36	1001.44	1000.26	998.831	997.195	1.158	1.021	0.911	0.82	0.744
m1 = 0.0298	1003.97	1003.04	1001.83	1000.39	998.752	1.171	1.034	0.92	0.827	0.75
m1 = 0.0399	1005.63	1004.68	1003.47	1002.01	1000.36	1.187	1.049	0.934	0.838	0.759
m1 = 0.0499	1007.26	1006.29	1005.05	1003.6	1001.92	1.203	1.062	0.945	0.849	0.769
m1 = 0.0601	1008.94	1007.93	1006.69	1005.22	1003.53	1.222	1.079	0.959	0.86	0.778

[Cl-].[Li+] [lithium chloride] + O
[1]
Conditions	mass density, 288.15 K [kg/m3]	mass density, 293.15 K [kg/m3]	mass density, 298.15 K [kg/m3]	mass density, 303.15 K [kg/m3]	mass density, 308.15 K [kg/m3]	viscosity, 288.15 K [mPa·s]	viscosity, 293.15 K [mPa·s]	viscosity, 298.15 K [mPa·s]	viscosity, 303.15 K [mPa·s]	viscosity, 308.15 K [mPa·s]
m1 = 0.1	1001.51	1000.58	999.41	998.003	996.382	1.146	1.011	0.898	0.809	0.735
m1 = 0.2	1004	1003.06	1001.87	1000.45	998.848	1.154	1.019	0.909	0.818	0.743
m1 = 0.3	1006.34	1005.37	1004.17	1002.75	1001.13	1.169	1.033	0.921	0.83	0.753
m1 = 0.4	1008.37	1007.4	1006.19	1004.76	1003.15	1.183	1.045	0.932	0.84	0.762
m1 = 0.5	1011.06	1010.07	1008.81	1007.35	1005.79	1.201	1.061	0.948	0.853	0.774

[Cl-].[K+] [potassium chloride] + O
[1]
Conditions	mass density, 288.15 K [kg/m3]	mass density, 293.15 K [kg/m3]	mass density, 298.15 K [kg/m3]	mass density, 303.15 K [kg/m3]	mass density, 308.15 K [kg/m3]	viscosity, 288.15 K [mPa·s]	viscosity, 293.15 K [mPa·s]	viscosity, 298.15 K [mPa·s]	viscosity, 303.15 K [mPa·s]	viscosity, 308.15 K [mPa·s]
m1 = 0.1	1003.85	1002.92	1001.71	1000.28	998.631	1.145	1.01	0.896	0.801	0.722
m1 = 0.2	1008.58	1007.58	1006.33	1004.85	1003.19	1.145	1.01	0.896	0.801	0.723
m1 = 0.3	1013.16	1012.13	1010.84	1009.34	1007.64	1.145	1.011	0.897	0.801	0.726
m1 = 0.4	1017.86	1016.77	1015.43	1013.89	1012.18	1.147	1.013	0.897	0.801	0.73
m1 = 0.5	1022.32	1021.2	1019.84	1018.27	1016.52	1.152	1.027	0.899	0.802	0.73

[Cl-].[Na+] [sodium chloride] + O
[1]
Conditions	mass density, 288.15 K [kg/m3]	mass density, 293.15 K [kg/m3]	mass density, 298.15 K [kg/m3]	mass density, 303.15 K [kg/m3]	mass density, 308.15 K [kg/m3]	viscosity, 288.15 K [mPa·s]	viscosity, 293.15 K [mPa·s]	viscosity, 298.15 K [mPa·s]	viscosity, 303.15 K [mPa·s]	viscosity, 308.15 K [mPa·s]
m1 = 0.1	1003.32	1002.36	1001.15	999.711	998.058	1.146	1.011	0.892	0.804	0.73
m1 = 0.2	1007.43	1006.42	1005.14	1003.65	1001.98	1.149	1.016	0.901	0.812	0.738
m1 = 0.3	1011.33	1010.27	1008.96	1007.44	1005.73	1.151	1.019	0.91	0.82	0.745
m1 = 0.4	1015.65	1014.53	1013.16	1011.6	1009.85	1.158	1.026	0.917	0.827	0.751
m1 = 0.5	1019.41	1018.24	–	1015.24	1013.48	1.165	1.033	0.925	0.834	0.76

O [water]
[2]
Conditions	viscosity [mPa·s]
288.15 K	1.145
293.15 K	1.01
298.15 K	0.896
303.15 K	0.801
308.15 K	0.721
